Test results taken from US12636290B2, “BET inhibitors for modulating DUX4 expression in FSHD” (Saint Louis University, priority 2018, dated 2026).
Like-named read-outs stand apart in the source and are kept apart here.

Tested on: DUX4 expression (surrogate marker MBD3L2)
Test: Screening: qPCR analysis of DUX4 target gene MBD3L2 in differentiating MB200 FSHD2 muscle cells
Type: cell-based
Conditions: Homo sapiens, 40 hours, DUX4 expression inferred from surrogate marker MBD3L2 expression (qPCR, normalized to RPL30)
Method: Cells and Cell Culture. Primary human myoblast cell lines, immortalized by retroviral transduction of cyclin-dependent kinase 4 (CDK4) and human telomerase reverse transcriptase (hTERT) (Stadler, et al., 2011), were obtained from the Fields Center at the University of Rochester (world-wide-web at urmc.rochester.edu/fields-center.aspx). Immortalized myoblasts were grown in Ham's F-10 Nutrient Mix (Gibco, Waltham, MA, USA) supplemented with 20% HyClone Fetal Bovine Serum (GE Healthcare Life Sciences, Pittsburgh, PA, USA), 100 U/100 μg penicillin/streptomycin (Gibco), 10 ng/ml recombinant human fibroblast growth factor (Promega Corporation, Madison, WI, USA) and 1 μM dexamethasone (Sigma-Aldrich). Differentiation of myoblasts into myotubes was achieved by switching the fully confluent myoblast monolayer into Dulbecco's Modified Eagle Medium (DMEM) (Gibco) containing 1% horse serum (Gibco), 100 U/100 μg penicillin/streptomycin, 10 μg/ml insulin (Sigma-Aldrich) and 10 μg/ml transferrin (Sigma-Aldrich) (HS/IT media) or DMEM:F12 Nutrient Mixture (1:1, Gibco) supplemented with 2% KnockOut Serum Replacement (Gibco), 100 U/100 μg penicillin/streptomycin, 10 μg/ml insulin and 10 μg/ml transferrin (KSR media) for 2-6 days.
Screening: qPCR analysis of DUX4 target genes MBD3L2. For screening compounds, differentiating MB200 FSHD2 muscle cells were exposed to BET inhibitors at a variety of concentrations for 40 hours to determine the effects of the drugs on DUX4 expression. Cell lysates were prepared using Cells-to-Ct Bulk Lysis Reagents (Invitrogen, Waltham, MA, USA). Gene expression was measured by quantitative polymerase chain reaction (qPCR) was carried out on a QuantStudio 5 (Applied Biosystems, Waltham, MA, USA) using TaqMan Gene Expression Assays (Applied Biosystems) and TaqMan Fast Virus 1-Step Master Mix (Invitrogen). The relative expression levels of DUX4 target gene methyl-CpG binding domain protein 3 like 2 (MBD3L2), was normalized to that of the reference gene ribosomal protein L30 (RPL30), which was included in multiplex (two gene) PCR reactions. TaqMan Gene Expression Assay ID numbers: MBD3L2, Hs00544743_m1; RPL30, Hs00265497_m1. Data is expressed as relative expression with the expression in absence of inhibitors set to one.
Analysis of MBD3L2 expression in cultured FSHD2 cells. DUX4 mRNA is present in very low levels, even in differentiating FSHD2 myoblasts, so DUX4 target gene MBD3L2 was used as a surrogate marker of DUX4 expression. FSHD2 patient derived muscle cells were analyzed to determine whether BET inhibitors affect MBD3L2 expression, indicating a reduction in DUX4 expression.

`CN1CCN(CCOc2ccc(-c3ccc4cc(-c5cn(C)c(=O)c6[nH]ccc56)ccc4n3)cc2)CCC1=O` [SLU-2277, 6-methyl-4-{2-[4-(2-(4-methyl-5-oxo-1,4-diazepan-1-yl)ethoxy)phenyl]quinolin-6-yl}-1,6-dihydro-7H-pyrrolo[2,3-c]pyridin-7-one] was tested, and the IC50 (read-out: DUX4* MT FSHD2: IC50) was 20 nM and the IC50 (read-out: DUX4* MT FSHD2 IC50) was 20 nM.
`C=CCn1cc(-c2ccc3cc(-c4ccc(OCCN5CCN(C)C(=O)[C@H]5C)cc4)ccc3n2)c2cc[nH]c2c1=O` [SLU-2326, (R)-6-allyl-4-{6-[4-(2-(2,4-dimethyl-3-oxopiperazin-1-yl)ethoxy)phenyl]quinolin-2-yl}-1H-pyrrolo[2,3-c]pyridin-7(6H)-one] showed an IC50 (read-out: DUX4* MT FSHD2: IC50) of 130 nM and an IC50 (read-out: DUX4* MT FSHD2 IC50) of 130 nM.
`CCn1cc(-c2ccc3cc(-c4ccc(OCCN5CCN(C)C(=O)[C@H]5C)cc4)ccc3n2)c2cc[nH]c2c1=O` [SLU-2295, (R)-4-{6-[4-(2-(2,4-dimethyl-3-oxopiperazin-1-yl)ethoxy)phenyl]quinolin-2-yl}-6-ethyl-1H-pyrrolo[2,3-c]pyridin-7(6H)-one] was tested, and the IC50 (read-out: DUX4* MT FSHD2: IC50) was 51 nM and the IC50 (read-out: DUX4* MT FSHD2 IC50) was 51 nM.
With `CN1CCCN(CCOc2ccc(-c3ccc4cc(-c5cn(C)c(=O)c6[nH]ccc56)ccc4n3)cc2)CC1=O` [SLU-2300, 6-methyl-4-{2-[4-(2-(4-methyl-3-oxo-1,4-diazepan-1-yl)ethoxy)phenyl]quinolin-6-yl}-1H-pyrrolo[2,3-c]pyridin-7(6H)-one] the IC50 (read-out: DUX4* MT FSHD2: IC50) was 49 nM and the IC50 (read-out: DUX4* MT FSHD2 IC50) was 49 nM.
For `CN1CCN(CCOc2ccc(-c3ccc4cc(-c5cn(C)c(=O)c6[nH]ccc56)ccc4n3)cc2)C(C)(C)C1=O` [SLU-2241, 6-methyl-4-{2-[4-(2-(2,2,4-trimethyl-3-oxopiperazin-1-yl)ethoxy)phenyl]quinolin-6-yl}-1H-pyrrolo[2,3-c]pyridin-7(6H)-one], the IC50 (read-out: DUX4* MT FSHD2: IC50) was 110 nM and the IC50 (read-out: DUX4* MT FSHD2 IC50) was 110 nM.
For `CN1CCN(CCOc2ccc(C3CCN(c4ccc(-c5cn(C)c(=O)c6[nH]ccc56)cn4)CC3)cc2)CC1=O` [SLU-2131, 6-methyl-4-{6-[4-(4-(2-(4-methyl-3-oxopiperazin-1-yl)ethoxy)phenyl)piperidin-1-yl]pyridin-3-yl}-1H-pyrrolo[2,3-c]pyridin-7(6H)-one], the IC50 (read-out: DUX4* MT FSHD2: IC50) was 62 nM and the IC50 (read-out: DUX4* MT FSHD2 IC50) was 62 nM.
`Cn1cc(-c2ccc3nc(-c4ccc(OCCN5CCNC(=O)C5)cc4)ccc3c2)c2cc[nH]c2c1=O` [SLU-2242, 6-methyl-4-{2-[4-(2-(3-oxopiperazin-1-yl)ethoxy)phenyl]quinolin-6-yl}-1H-pyrrolo[2,3-c]pyridin-7(6H)-one] gave an IC50 (read-out: DUX4* MT FSHD2: IC50) of 93 nM and an IC50 (read-out: DUX4* MT FSHD2 IC50) of 93 nM.
For `COc1ccc(C2CCN(c3ccc(-c4cn(C)c(=O)c5[nH]ccc45)cn3)CC2)cc1` [SLU-2108, 4-{6-[4-(4-methoxyphenyl)piperidin-1-yl]pyridin-3-yl}-6-methyl-1H-pyrrolo[2,3-c]pyridin-7(6H)-one], the IC50 (read-out: DUX4* MT FSHD2: IC50) was 280 nM and the IC50 (read-out: DUX4* MT FSHD2 IC50) was 280 nM.
With `Cn1cc(-c2ccc3nc(-c4ccc(OCCN5CCC(F)(F)CC5)cc4)ccc3c2)c2cc[nH]c2c1=O` [SLU-2285, 4-{2-[4-(2-(4,4-difluoropiperidin-1-yl)ethoxy)phenyl]quinolin-6-yl}-6-methyl-1H-pyrrolo[2,3-c]pyridin-7(6H)-one] the IC50 (read-out: DUX4* MT FSHD2: IC50) was 570 nM and the IC50 (read-out: DUX4* MT FSHD2 IC50) was 570 nM.
Work on `CC(=O)N1C[C@@H](C)N(CCOc2ccc(C3CCN(c4ccc(-c5cn(C)c(=O)c6[nH]ccc56)cn4)CC3)cc2)[C@@H](C)C1` [SLU-2090, 4-{6-[4-(4-(2-((2R,6S)-4-acetyl-2,6-dimethylpiperazin-1-yl)ethoxy)phenyl)piperidin-1-yl]pyridin-3-yl}-6-methyl-1H-pyrrolo[2,3-c]pyridin-7(6H)-one] yielded an IC50 (read-out: DUX4* MT FSHD2: IC50) of 43 nM and an IC50 (read-out: DUX4* MT FSHD2 IC50) of 43 nM.
`COc1ccc2cc(-c3cn(C)c(=O)c4[nH]ccc34)ccc2n1` [SLU-2294, 4-(2-methoxyquinolin-6-yl)-6-methyl-1H-pyrrolo[2,3-c]pyridin-7(6H)-one] gave an IC50 (read-out: DUX4* MT FSHD2: IC50) of 59 nM and an IC50 (read-out: DUX4* MT FSHD2 IC50) of 59 nM.
Work on `C[C@@H]1C(=O)N(C)CCN1CCOc1ccc(CCc2ccc(-c3cn(C)c(=O)c4[nH]ccc34)cc2)cc1` [SLU-2227, (R)-4-{4-[4-(2-(2,4-dimethyl-3-oxopiperazin-1-yl)ethoxy)phenethyl]phenyl}-6-methyl-1H-pyrrolo[2,3-c]pyridin-7(6H)-one] yielded an IC50 (read-out: DUX4* MT FSHD2: IC50) of 69 nM and an IC50 (read-out: DUX4* MT FSHD2 IC50) of 69 nM.
`C[C@@H]1C(=O)N(C)CCN1CCOc1ccc(-c2ccc3nc(-c4cn(C)c(=O)c5[nH]ccc45)ccc3c2)cn1` [SLU-2235, (R)-4-{6-[6-(2-(2,4-dimethyl-3-oxopiperazin-1-yl)ethoxy)pyridin-3-yl]quinolin-2-yl}-6-methyl-1H-pyrrolo[2,3-c]pyridin-7(6H)-one] gave an IC50 (read-out: DUX4* MT FSHD2: IC50) of 12 nM and an IC50 (read-out: DUX4* MT FSHD2 IC50) of 12 nM.
With `C[C@@H]1CCC[C@H](C)N1CCOc1ccc(-c2ccc3nc(-c4cn(C)c(=O)c5[nH]ccc45)ccc3c2)cc1` [SLU-2279, 4-{6-[4-(2-((2R,6S)-2,6-dimethylpiperidin-1-yl)ethoxy)phenyl]quinolin-2-yl}-6-methyl-1H-pyrrolo[2,3-c]pyridin-7(6H)-one] the IC50 (read-out: DUX4* MT FSHD2: IC50) was 420 nM and the IC50 (read-out: DUX4* MT FSHD2 IC50) was 420 nM.
`Cn1cc(-c2ccc3cc(-c4ccc(OCCN5CCOCC5)cc4)ccc3n2)c2cc[nH]c2c1=O` [SLU-2278, 6-methyl-4-{6-[4-(2-morpholinoethoxy)phenyl]quinolin-2-yl}-1,6-dihydro-7H-pyrrolo[2,3-c]pyridin-7-one] gave an IC50 (read-out: DUX4* MT FSHD2: IC50) of 120 nM and an IC50 (read-out: DUX4* MT FSHD2 IC50) of 120 nM.
`Cn1cc(-c2ccc(N3CCC4(CCNC4)CC3)nc2)c2cc[nH]c2c1=O` [SLU-2120, 4-[6-(2,8-diazaspiro[4.5]decan-8-yl)pyridin-3-yl]-6-methyl-1H-pyrrolo[2,3-c]pyridin-7(6H)-one] was tested, and the IC50 (read-out: DUX4* MT FSHD2: IC50) was 350 nM and the IC50 (read-out: DUX4* MT FSHD2 IC50) was 350 nM.
`CCN1CCN(CCOc2ccc(-c3ccc4cc(-c5cn(C)c(=O)c6[nH]ccc56)ccc4n3)cc2)[C@H](C)C1=O` [SLU-2611, (R)-4-{2-[4-(2-(4-ethyl-2-methyl-3-oxopiperazin-1-yl)ethoxy)phenyl]quinolin-6-yl}-6-methyl-1H-pyrrolo[2,3-c]pyridin-7(6H)-one] showed an IC50 (read-out: DUX4* MT FSHD2: IC50) of 41 nM and an IC50 (read-out: DUX4* MT FSHD2 IC50) of 41 nM.
Work on `C[C@@H]1C(=O)N(C)CCN1CCOCC(=O)N1CCC2(CC1)CCN(c1ccc(-c3cn(C)c(=O)c4[nH]ccc34)cn1)CC2` [SLU-2225, (R)-4-{6-[9-(2-(2-(2,4-dimethyl-3-oxopiperazin-1-yl)ethoxy)acetyl)-3,9-diazaspiro[5.5]undecan-3-yl]pyridin-3-yl}-6-methyl-1H-pyrrolo[2,3-c]pyridin-7(6H)-one] yielded an IC50 (read-out: DUX4* MT FSHD2: IC50) of 35 nM and an IC50 (read-out: DUX4* MT FSHD2 IC50) of 35 nM.
Molecule `C[C@@H]1C(=O)N(C)CCN1CCCN1CCN(c2ccc3cc(-c4cn(C)c(=O)c5[nH]ccc45)ccc3n2)CC1` [SLU-2346, (R)-4-{2-[4-(3-(2,4-dimethyl-3-oxopiperazin-1-yl)propyl)piperazin-1-yl]quinolin-6-yl}-6-methyl-1H-pyrrolo[2,3-c]pyridin-7(6H)-one] has an IC50 (read-out: DUX4* MT FSHD2: IC50) of 41 nM and an IC50 (read-out: DUX4* MT FSHD2 IC50) of 41 nM.
For `CC(C)CCOc1ccc(C2CCN(c3ccc(-c4cn(C)c(=O)c5[nH]ccc45)cn3)CC2)cc1` [SLU-2124, 4-{6-[4-(4-(isopentyloxy)phenyl)piperidin-1-yl]pyridin-3-yl}-6-methyl-1H-pyrrolo[2,3-c]pyridin-7(6H)-one], the IC50 (read-out: DUX4* MT FSHD2: IC50) was 1300 nM and the IC50 (read-out: DUX4* MT FSHD2 IC50) was 1300 nM.
For `CCCN1CCN(CCOc2ccc(-c3ccc4cc(-c5cn(C)c(=O)c6[nH]ccc56)ccc4n3)cc2)CC1=O` [SLU-2282, 6-methyl-4-{2-[4-(2-(3-oxo-4-propylpiperazin-1-yl)ethoxy)phenyl]quinolin-6-yl}-1H-pyrrolo[2,3-c]pyridin-7(6H)-one], the IC50 (read-out: DUX4* MT FSHD2: IC50) was 54 nM and the IC50 (read-out: DUX4* MT FSHD2 IC50) was 54 nM.
`C[C@@H]1C(=O)N(C)CCCN1CCOc1ccc(-c2ccc3cc(-c4cn(C)c(=O)c5[nH]ccc45)ccc3n2)cc1` [SLU-2284, (R)-4-{2-[4-(2-(2,4-dimethyl-3-oxo-1,4-diazepan-1-yl)ethoxy)phenyl]quinolin-6-yl}-6-methyl-1H-pyrrolo[2,3-c]pyridin-7(6H)-one] showed an IC50 (read-out: DUX4* MT FSHD2: IC50) of 90 nM and an IC50 (read-out: DUX4* MT FSHD2 IC50) of 90 nM.
With `C[C@@H]1C(=O)N(C)CCN1CCOc1ccc(C2CCN(c3ccc(-c4cn(C)c(=O)c5[nH]ccc45)cn3)CC2)cc1` [SLU-2089, (R)-4-{6-[4-(4-(2-(2,4-dimethyl-3-oxopiperazin-1-yl)ethoxy)phenyl)piperidin-1-yl]pyridin-3-yl}-6-methyl-1H-pyrrolo[2,3-c]pyridin-7(6H)-one] the IC50 (read-out: DUX4* MT FSHD2: IC50) was 4.8 nM and the IC50 (read-out: DUX4* MT FSHD2 IC50) was 4.8 nM.
